T1: DyLight488 labeled peptide DL488-BSCSB
T1 chain: DyLight488-[Phe(4-B(OH)2)]SCS[Phe(4-B(OH)2)]

B1: OSCSO (peptide)
chain: [Dopa]SCS[Dopa]

The conditions of data set [1]: quoted as stand-in for the pKa of 4-borono-phenylalanine; cited from earlier work.
Another data set has as its system BSCSB. Nature of the data set: Isothermal titration calorimetry (ITC), BSCSB titrated into the ligand peptide. The note with it: for binding in ITC at pH 7.4 (ligand comparison): pH 7.4, 25 °C, BSCSB titrated to YSCSY or OSCSO as ligand. The class given is binding. Here is the method: The pH-reversible interactions of boronic acid and catechol groups, the formation of disulfides, as well as the responsiveness of the bis-peptide system were further investigated under different conditions (Figure 5). First, the boronic acid condensation with the complementary catechol and the thermodynamic properties were assessed under pH conditions that are relevant to physiological conditions, i.e., pH = 7.4 typical for extracellular environment of normal tissues and pH 6 for acidic intracellular compartments such as endosomes.[28] Equimolar concentrations of the reacting tags were applied to investigate the thermodynamic parameters associated with the formation of the heterodimer. DyLight488 labeled peptide (DL488-BSCSB) was synthesized by connecting the commercially available NHS-ester of this dye to the N-terminus of the BSCSB sequence to enable a microscale thermophoresis (MST) experiment, in which the dissociation constant could be determined. MST measurements were performed by titrating DL488-BSCSB (2 μM) against the complementary OSCSO peptide binding partner (76 nM to 5 mM). […] Such an improvement could be explained by the lack of electrostatic repulsion due to the presence of the electroneutral serine (at physiological pH) in the sequence. […] To assess the binding constant at physiological pH and to understand the type of complex formed, isothermal titration calorimetry (ITC) measurements were performed. The raw data were plotted as heat rate versus time at pH = 6 and 7.4. (SI, Figure S16). […]
Additionally the same amount of BSCSB solution was titrated into pure water to determine the heat of dilution for reference. As a control another sequence was checked for binding with L-tyrosines instead of L-DOPA and measured as before mentioned. […]
Figure S 16: ITC titrations performed at a) pH = 7.4 and b) 6.0, showing the heat rate signals after base line correction. No heat change different from the dilution (blank) was detected for pH = 6.0. […]

Another data set has as its system A549 cells. Nature of the data set: Cell uptake by confocal microscopy. It is filed as cell-based, human. Conditions: 24 h, 37 °C. Here is the method: For cell uptake studies, A549 cell line was selected, which is a model of alveolar Type II pulmonary epithelium.[35] The uptake was performed under two conditions to test the robustness of the resultant conjugate, which represents the extracellular conditions found in different stages of cancer progression.[36] Internalization of the conjugate was first studied in standard cell culture media (∼ neutral pH). A solution of DL488 ≃ TAT was applied directly to A549 cells to a final concentration of 10 μM, without any further workup or further purification. As additional controls, (1) a conjugate DL488-BSCSB ≃ OSCSO incubated with free TAT sequence and (2) a conjugate without the disulfide bridge (DL488-BSGSB) ∼ (TAT-OSCSO) where cysteine was replaced by glycine in one of the sequences were both applied at 10 μM (Figure 7a). […] Next, we proceeded to verify that the peptide tags are robust even under metastatic tumor-like microenvironment, where acidosis is a hallmark. Consequently, the low extracellular pH can result in a more invasive phenotype (Figure 7c), which is more challenging to treat.[28] First, A549 cancer cells were subjected to acute acidification to derive cells cultured at pH 6.4.[37]−[39] Thereafter DL488 ≃ TAT and controls 1 and 2 were applied at 10 μM for 24 h. […] Therefore, the linker chemistry can potentially be adopted for more invasive cancer phenotypes.
Sample preparation protocol. 20 µL of 2 mM solutions of DL488-BSCSB and either OSCSO, OSCSO and TAT or TAT-OSCSO were mixed together to obtain 40 µL of 1 mM solution of preassembled conjugate (in 10 mM phosphate buffer pH = 8 with 10% DMSO). The conjugate was subsequently oxidized by addition of 1 µL 75 mM potassium peroxymonosulfate (Oxone®) solution in 100 mM PB, pH = 7.4 to obtain its final concentration as 1.8 mM. Prepared conjugate was used directly for the cell studies without […]
Cell culture. The human cell line A549 from adenocarcinomic lung tissue (American Type Culture Collection, Manassas, VA, US) was cultured in Dulbecco's modified Eagle medium (DMEM 4.5 g/L D-Glucose, L-Glutamine; Gibco by ThermoFisher Scientific, Germany) supplemented with 10% fetal calf serum (FCS; Sigma Aldrich, Germany) and 1% Penicillin/Streptomycin (Invitrogen, Germany) at a humified atmosphere with 37 °C and 5% CO2 . Fresh culture medium was replaced every two days and cells were subcultured after reaching 80% confluence.
Evaluation of cell uptake. A549 cells were detached by TrypLE Select (Gibco by ThermoFisher Scientific, Germany) and centrifuged 5 min at 1000 rpm. […]

Data set [2] concerns the target T1, DyLight488 labeled peptide DL488-BSCSB. Nature of the data set: MST; DL488-BSCSB (2 μM) held constant, OSCSO titrated (76 nM to 5 mM); 100 mM phosphate buffer pH 6.0 in the presence of TCEP; the legend of Figure 5b calls it a fluorescence quenching assay. Conditions: both partners purified.
Data set [3] shares this target. As to the kind of experiment: MST; DL488-BSCSB (2 μM) held constant, OSCSO titrated (76 nM to 5 mM); 100 mM phosphate buffer pH 7.4 in the presence of TCEP; the legend of Figure 5b calls it a fluorescence quenching assay. Conditions: both partners purified.
The target in the data set “OSCSO” is B1. As to the kind of experiment: ITC; BSCSB titrated to OSCSO (2Red); 100 mM phosphate buffer pH 7.4; independent binding model fit. The note with it: both partners purified.
Setting [4] is: standard cell culture media (∼ neutral pH), 10 μM, triplicates.

“Also recorded” adds a separate entry of the source. Square brackets hold non-standard residues; d marks the D form. Ends that are not written are not given here. Peptide text beside a SMILES is read from it. Phe(4-B(OH)2) = N[C@@H](Cc1ccc(B(O)O)cc1)C(=O)O; Dopa = N[C@@H](Cc1ccc(O)c(O)c1)C(=O)O

Broadly, the pKa is the negative logarithm of the acid dissociation constant. In general, Kd refers to a measure of binding affinity in units of concentration. Usually stoichiometry N stands for the number of molecules, sites or subunits per partner or assembly.

Regarding `Cc1ccc(B(O)O)cc1` [4-methylphenylboronic acid], the pKa in data set [1] is given as about 8.9.
`NC(=O)[C@H](Cc1ccc(O)c(O)c1)NC(=O)[C@H](CO)NC(=O)[C@H](CS)NC(=O)[C@H](CO)NC(=O)[C@@H](N)Cc1ccc(O)c(O)c1` [OSCSO] (H-[Dopa]SCS[Dopa]-NH2): the “binding in ITC at pH 6” value with BSCSB (pH 6.0, 100 mM phosphate buffer, 25 °C, BSCSB titrated into OSCSO, compared with heat of dilution) was “No heat change different from the dilution; also recorded: lack of binding”. In the data set with BSCSB, the “binding in ITC at pH 7.4 (ligand comparison)” value was “significant heat change”.
As for “(DL488-BSGSB) ∼ (TAT-OSCSO) (sidechain bridge or staple) [control 2]”, the “uptake in A549 cells” value in the data set with A549 cells (acidic media pH 6.4, 10 μM, no CO2, triplicates) is “not internalized”; in the data set with A549 cells (setting [4]) it was “no uptake was observed”.
In the case of “DL488-BSCSB≃OSCSO+TAT (bicyclic or more) [control 1]”, the “uptake in A549 cells” value in the data set with A549 cells (setting [4]) is listed as “no uptake was observed”.
Consider YSCSY, for which, in the data set with BSCSB, the “binding in ITC at pH 7.4 (ligand comparison)” value is given as “No binding”.
Regarding “DL488-BSCSB≃OSCSO-TAT (bicyclic or more) [DL488 ≃ TAT, dual responsive conjugate of TAT-OSCSO and DL488-BSCSB after addition of Oxone]”, in the data set on A549 cells (setting [4]), the “uptake in A549 cells” value is recorded as “significant uptake”.
Turning to B1, the Kd in data set [2] was over 440000 nM; in data set [3], 1800 ± 400 nM.
Turning to [Phe(4-B(OH)2)]SCS[Phe(4-B(OH)2)] [BSCSB], in the data set with OSCSO, the Kd was 1800 ± 400 nM and the “stoichiometry N” value is 1.2 ± 0.1.

The record behind these values is article PMC8532147, “Dual Stimuli-Responsive Dynamic Covalent Peptide Tags: Toward Sequence-Controlled Release in Tumor-like Microenvironments” (Journal of the American Chemical Society, 2021).
